We go through one compound from patent publication US4285941A, “Cephalosporin compounds and antibacterial drugs containing the same” (Eisai Co., Ltd., priority 1979, dated 1981).

One data set relates to Escherichia coli NIHJ. In words: Minimal inhibitory concentration (MIC), standard agar dilution method. It is filed as cell-based. Conditions: Mueller Hinton agar, 37° C., 18 hours, Examples 1, 2, 4, 5, 6, 8 and 22 as sodium salts, others as free carboxylic acids. The method, then:
(§1) The compounds obtained in these examples were tested for their antibacterial activities in vitro. Minimal inhibitory concentration (MIC) was determined by the standard agar dilution method of the Japan Society of Chemotherapy. Compounds were dissolved in appropriate solvents (sterilized water for sodium salts and acetone-water [1:1] for free acids) and serial two-fold dilutions were made. Sodium salt of Cefazolin was chosen as the control compound. One-ml aliquots of each dilution were mixed with 9 ml of Mueller Hinton agar in petri-dishes to make agar plates containing the compound at serially diluted concentrations. After agar hardened, plates were put in an incubator at 37° C. for 1.5-2 hours with the lids slightly open to evaporate acetone off the plates. Test organisms were grown for 18 hours at 37° C. in Trypticase Soy broth and diluted in saline to approximately 10^6 colony forming units per ml. A loopful of each cell suspension was applied on the agar plate mentioned above and the plates were incubated for 18 hours at 37° C. before MIC was determined. MIC values of the compounds of Examples 1, 2, 4, 5, 6, 8 and 22 were determined as their sodium salts and those of other compounds as free carboxylic acids.

Data set [1] relates to Klebsiella pneumoniae EK-6. The data set is described as above. It counts as cell-based. Conditions: EK6, Mueller Hinton agar, 37° C., 18 hours, Examples 1, 2, 4, 5, 6, 8 and 22 as sodium salts, others as free carboxylic acids. The method, then: as §1
The next data set concerns Proteus morganii EP-14. The description is as above. Conditions: Morganella morganii, EP14; Mueller Hinton agar, 37° C., 18 hours; Examples 1, 2, 4, 5, 6, 8 and 22 as sodium salts, others as free carboxylic acids. It is filed as cell-based. The protocol: as §1
Data set [2] relates to Pseudomonas aeruginosa EP-172. Described as above. It counts as cell-based. The settings on record: EP172, Mueller Hinton agar, 37° C., 18 hours, Examples 1, 2, 4, 5, 6, 8 and 22 as sodium salts, others as free carboxylic acids. The method, then:
as §1

The subject of data set [3] is Serratia marcescens ES-75. Described as above. The settings on record: ES75, Mueller Hinton agar, 37° C., 18 hours, Examples 1, 2, 4, 5, 6, 8 and 22 as sodium salts, others as free carboxylic acids. It is filed as cell-based. The protocol: as §1
In data set [4] the test system is Staphylococcus aureus 209-P. Described as above. Conditions: Mueller Hinton agar, 37° C., 18 hours, Examples 1, 2, 4, 5, 6, 8 and 22 as sodium salts, others as free carboxylic acids. It is filed as cell-based. The method, then:
as §1

Data set [5] in a line: Acute toxicity (LD50, mouse, oral). The settings on record: in vivo. The text has this:
The acute toxicity values [LD50 (mouse, oral)] for the following compounds, for example, were over 5 g/kg: […]

Structures can show the parent of a compound that is named as a salt.

Turning to `Cn1nnnc1SCC1=C(C(=O)O)N2C(=O)[C@@H](NC(=O)[C@H](NC(=O)c3coc4cc(O)c(O)cc4c3=O)c3ccccc3)[C@H]2SC1` [Example 1, Sodium salt of 7β-[D-2-(6,7-dihydroxychromone-3-carboxamido)-2-phenylacetamido]-3-[(1-methyltetrazol-5-yl)-thiomethyl]-3-cephem-4-carboxylic acid], the MIC in the data set with Escherichia coli NIHJ was 0.4 µg/mL; in data set [1], at most 0.1 µg/mL; with Proteus morganii EP-14 it was 0.4 µg/mL; in data set [2], 0.8 µg/mL; in data set [3], at most 0.1 µg/mL; in data set [4], 1.56 µg/mL. The compound also showed a 50% lethal dose (LD50) in data set [5] above 5000 mg/kg.
